Laboratory results from patent publication US11466006B2, “Dual selective PI3 delta and gamma kinase inhibitors” (Rhizen Pharmaceuticals SA, priority 2013, dated 2022).
pEC50, pIC50: −log10 of the molar value. Read-outs that look alike come from different tables or passages of the source.

Assays:
PI3K alpha = target: T1, PI3K alpha (Mus musculus, UniProt P42337); assay: PDGF induced Akt phosphorylation in 3T3 cells (PI3Kα selectivity); assay type: cell-based
T1 construct: endogenous in cells; host or cells: 3T3 fibroblasts
Experimental: The objective of this study was to determine the effect of Compound A1 on PI3Kα kinase mediated AktS473 phosphorylation in PDGF induced 3T3 fibroblasts. • 3T3 cells were treated with desired concentrations of the test compound for 15 min. 1 ml of 2× PDGF was added such that the final concentration was 20 ng/ml and incubated for 10 min. • Media was discarded and washed with 1 ml of ice-cold 1× PBS. • 250 μl of cell lysis buffer was added and incubated on ice for 30 min. • Samples were centrifuged and supernatant was collected and stored at −80° C. until analysis. • Samples were analyzed by Western Blotting using pAKT (S473) as the primary and anti-rabbit IgG-HRP as a secondary antibody. • Intensity of the bands was determined using ImageJ 1.42q (NIH, USA) and normalized to Actin (loading control). Data was plotted using GraphPad Prism (Version 5.02).

caspase-3 activity = assay: Apoptosis in leukemic cell lines (in-situ Caspase 3 kit); assay type: cell-based; details: MOLT-4, Jurkat, CCRF-CEM, Hut-78 & HuT-102; 24 hrs
Experimental: Apoptosis in leukemic cells was determined using an in-situ Caspase 3 kit (Millipore, US) as outlined below: • Seed leukemic cells—at a density of 1×10^6 cells/well in a 6 well plate • Add test compound/DMSO at desired concentrations • Incubate the plate for 24 hrs at 37° C. in 5% CO2 incubator • Collect cells in a 2 ml centrifuge tube • Add 1.6 μL of freshly prepared 5× FLICA reagent and mix cells by slightly flicking the tubes • Incubate tubes for 1 hour at 37° C. under 5% CO2 • Add 2 ml of 1× wash buffer to each tube and mix • Centrifuge cells at <400× g for 5 minutes at room temperature. • Carefully remove and discard supernatant, and gently vortex cell pellet to disrupt any cell-to-cell clumping. • Resuspend cell pellet in 300 ul of 1× wash buffer • Place 100 μL of each cell suspension into each of two wells of a black microtiter plate. Avoid creation of bubbles. • Read […] of each microwell using an excitation wavelength of 490 nm and an emission wavelength of 520 nm • Percent increase in caspase-3 activity manifested by an increase in fluorescence compared to the control blank is to be calculated.

Female Wistar rats = assay: Lipopolysaccharide induced pulmonary neutrophilia in female Wistar rat model; assay type: in vivo; details: Neutrophil, oral gavage, 1 h before intratracheal LPS, BAL at 6 h, read-out: ED50, reduction of neutrophil infiltration into the lungs
Experimental: After the quarantine period, fasted animals were randomized and divided into various groups depending on their body weights. The test compound [Compound A1] was prepared as a suspension in a vehicle consisting of 0.5% methylcellulose in which Tween 80 as a suspending agent. The compound or vehicle was administered by oral gavage in a volume of 10 mL/kg. Female Wistar rats were anaesthetized with ketamine and LPS solution was administered intratracheally one hour after compound administration at a dose of 1 mg/kg. 6 h after LPS instillation, animals were exsanguinated under anaesthesia, and then trachea was cannulated and the lungs were lavaged with 5-ml aliquots of heparinised PBS (1 unit/ml) four times through tracheal cannula (total volume 20 ml). Bronchoalveolar lavage (BAL) fluid was been stored at 2-8° C. until assayed for total cell and differential leukocyte count. Bronchioalveolar fluid was centrifuged (500×g for 10 min) and the resulting cell pellet was resuspended in 0.5 ml of heparinised saline. The total numbers of white blood cells were determined in BAL fluid or blood by using a blood cell counter and was adjusted to 1×10^6 cell/ml. Differential cell count was calculated manually. […] The number of each cell type among 300 white blood cells in the cell smear was determined and expressed as a percentage. The number of eosinophil in each BALf or blood was calculated.

Primary CLL cells = assay: Anti-cancer activity in human CLL cells (MTS cytotoxicity); assay type: cell-based; details: CLL cell, 72 h, 3 days, read-out: median EC50, cytotoxicity in CLL cells
Experimental: Primary CLL cells were enriched using Rosette-Sep B cells from Stem Cell Technology, generally giving purity of >97% of B cells/CLL cells. Cells were seeded at 2.5×10^5 per well in a 96 well with either serum free medium (SFM) or SFM+10% heat-inactivated fetal bovine serum (volume 100 microliters) in the presence of desired concentrations of the test compound and cultured for 3 days at 37° C. in a carbon dioxide incubator. Cytotoxicity was determined using the MTS assay.

Pi3K α = target: T2, Pi3K α (Homo sapiens, UniProt P42336); assay: Fluorescent (HTRF) determination of PI3 kinase enzyme activity, alpha isoform; assay type: biochemical; details: Table 1, HTRF
T2 construct: purchased Millipore (assay kit)
Description: Phosphoinositide 3 kinases (PI3K) belong to a class of lipid kinases that play a critical role in the regulation of several key cellular processes. The PI3K are capable of phosphorylating the 3-hydroxy position of phosphoinositols thereby generating second messengers involved in downstream signalling events. The homogenous time resolved fluorescence (HTRF) assay allows detection of 3,4,5-triphosphate (PIP3) formed as a result of phosphorylation of phosphotidylinositol 4,5-biphosphate (PIP2) by PI3K isoforms such as α, β, γ or δ.
PI3K isoform activity for α, β, γ or δ was determined using a PI3K human HTRF™ Assay Kit (Millipore, Billerica, Mass.) with modifications. All incubations were carried out at room temperature. Briefly, 0.5 μl of 40× inhibitor (in 100% DMSO) or 100% DMSO were added to each well of a 384-well white plate (Greiner Bio-One, Monroe, N.C.) containing 14.5 μl 1× reaction buffer /PIP2 (10 mM MgCl2, 5 mM DTT, 1.38 μM PIP2) mix with or without enzyme, followed by 5 μl/well of 400 μM ATP and incubated for an additional 30 minutes. Reaction was terminated by adding 5 μl/well stop solution (Millipore, Billerica, Mass.). […] HRTF ratio was measured on a microplate reader (BMG Labtech., Germany) at an excitation wavelength of 337 nm and emission wavelengths of 665 and 615 nm with an integration time of 400 msec counting delay of 50 msec.

pAKT = assay: Inhibition of AKT phosphorylation in leukemic cell lines (Western blot); assay type: cell-based; details: MOLT-4, Jurkat, CCRF-CEM, Hut-78 & HuT-102; 48 h; read-out: EC50, reduction in pAKT expression
Experimental: MOLT-4, Jurkat, CCRF-CEM, Hut-78, HuT-102, Sez4 and HH cells were incubated with desired concentrations of compound for 48 h. Cells were lysed and pAKT determined by Western Blotting. Bands were quantified using ImageJ and normalized to actin.

T1 sequence (P42337 whole entry): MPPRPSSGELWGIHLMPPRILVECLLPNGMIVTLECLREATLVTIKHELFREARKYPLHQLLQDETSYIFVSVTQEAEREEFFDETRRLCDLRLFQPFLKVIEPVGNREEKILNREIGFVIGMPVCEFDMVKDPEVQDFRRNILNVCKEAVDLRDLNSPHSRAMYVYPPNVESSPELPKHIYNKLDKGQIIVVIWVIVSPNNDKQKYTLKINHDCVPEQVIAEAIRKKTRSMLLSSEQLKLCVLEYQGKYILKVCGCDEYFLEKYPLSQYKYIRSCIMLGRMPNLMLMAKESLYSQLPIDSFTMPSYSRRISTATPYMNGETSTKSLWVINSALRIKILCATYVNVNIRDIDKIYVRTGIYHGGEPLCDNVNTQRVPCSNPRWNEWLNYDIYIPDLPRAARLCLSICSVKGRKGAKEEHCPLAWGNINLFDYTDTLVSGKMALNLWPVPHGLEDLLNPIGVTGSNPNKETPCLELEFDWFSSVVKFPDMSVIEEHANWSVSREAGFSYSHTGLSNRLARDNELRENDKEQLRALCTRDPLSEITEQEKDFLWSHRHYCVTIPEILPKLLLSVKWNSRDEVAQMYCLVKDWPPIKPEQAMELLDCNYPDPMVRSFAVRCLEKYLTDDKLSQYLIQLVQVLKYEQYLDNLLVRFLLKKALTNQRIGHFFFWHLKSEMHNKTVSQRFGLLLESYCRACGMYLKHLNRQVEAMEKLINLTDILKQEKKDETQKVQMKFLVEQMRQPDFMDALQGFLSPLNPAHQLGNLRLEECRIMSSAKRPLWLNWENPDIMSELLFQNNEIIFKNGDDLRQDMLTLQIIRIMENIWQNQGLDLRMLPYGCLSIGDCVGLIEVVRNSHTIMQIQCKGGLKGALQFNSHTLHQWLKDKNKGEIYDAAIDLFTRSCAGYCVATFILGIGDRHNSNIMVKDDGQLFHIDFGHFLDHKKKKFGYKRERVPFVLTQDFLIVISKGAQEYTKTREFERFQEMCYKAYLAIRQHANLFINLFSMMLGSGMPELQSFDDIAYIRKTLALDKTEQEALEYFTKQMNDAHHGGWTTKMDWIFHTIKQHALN
T1 sequence (P26450 whole entry partner): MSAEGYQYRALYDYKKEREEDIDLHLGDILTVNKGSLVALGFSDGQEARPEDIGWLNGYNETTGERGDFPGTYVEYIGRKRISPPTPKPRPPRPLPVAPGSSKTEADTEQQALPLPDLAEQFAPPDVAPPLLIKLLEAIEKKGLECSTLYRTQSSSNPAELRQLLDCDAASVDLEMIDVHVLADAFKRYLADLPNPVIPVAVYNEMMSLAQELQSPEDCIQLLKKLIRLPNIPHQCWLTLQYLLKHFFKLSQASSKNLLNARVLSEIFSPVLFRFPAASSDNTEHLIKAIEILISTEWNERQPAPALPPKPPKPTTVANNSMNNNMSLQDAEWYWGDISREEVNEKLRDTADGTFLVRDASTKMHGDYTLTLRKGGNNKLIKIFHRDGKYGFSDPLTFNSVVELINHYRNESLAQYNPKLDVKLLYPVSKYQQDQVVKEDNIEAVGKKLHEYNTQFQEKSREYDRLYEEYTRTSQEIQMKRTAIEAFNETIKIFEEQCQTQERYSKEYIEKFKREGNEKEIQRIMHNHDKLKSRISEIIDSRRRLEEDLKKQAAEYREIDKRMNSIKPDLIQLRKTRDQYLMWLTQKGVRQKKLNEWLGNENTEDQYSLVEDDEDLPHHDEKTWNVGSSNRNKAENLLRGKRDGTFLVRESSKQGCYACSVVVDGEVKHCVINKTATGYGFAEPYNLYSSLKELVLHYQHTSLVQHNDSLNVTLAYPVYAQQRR
T2 sequence (P42336 whole entry, canonical isoform): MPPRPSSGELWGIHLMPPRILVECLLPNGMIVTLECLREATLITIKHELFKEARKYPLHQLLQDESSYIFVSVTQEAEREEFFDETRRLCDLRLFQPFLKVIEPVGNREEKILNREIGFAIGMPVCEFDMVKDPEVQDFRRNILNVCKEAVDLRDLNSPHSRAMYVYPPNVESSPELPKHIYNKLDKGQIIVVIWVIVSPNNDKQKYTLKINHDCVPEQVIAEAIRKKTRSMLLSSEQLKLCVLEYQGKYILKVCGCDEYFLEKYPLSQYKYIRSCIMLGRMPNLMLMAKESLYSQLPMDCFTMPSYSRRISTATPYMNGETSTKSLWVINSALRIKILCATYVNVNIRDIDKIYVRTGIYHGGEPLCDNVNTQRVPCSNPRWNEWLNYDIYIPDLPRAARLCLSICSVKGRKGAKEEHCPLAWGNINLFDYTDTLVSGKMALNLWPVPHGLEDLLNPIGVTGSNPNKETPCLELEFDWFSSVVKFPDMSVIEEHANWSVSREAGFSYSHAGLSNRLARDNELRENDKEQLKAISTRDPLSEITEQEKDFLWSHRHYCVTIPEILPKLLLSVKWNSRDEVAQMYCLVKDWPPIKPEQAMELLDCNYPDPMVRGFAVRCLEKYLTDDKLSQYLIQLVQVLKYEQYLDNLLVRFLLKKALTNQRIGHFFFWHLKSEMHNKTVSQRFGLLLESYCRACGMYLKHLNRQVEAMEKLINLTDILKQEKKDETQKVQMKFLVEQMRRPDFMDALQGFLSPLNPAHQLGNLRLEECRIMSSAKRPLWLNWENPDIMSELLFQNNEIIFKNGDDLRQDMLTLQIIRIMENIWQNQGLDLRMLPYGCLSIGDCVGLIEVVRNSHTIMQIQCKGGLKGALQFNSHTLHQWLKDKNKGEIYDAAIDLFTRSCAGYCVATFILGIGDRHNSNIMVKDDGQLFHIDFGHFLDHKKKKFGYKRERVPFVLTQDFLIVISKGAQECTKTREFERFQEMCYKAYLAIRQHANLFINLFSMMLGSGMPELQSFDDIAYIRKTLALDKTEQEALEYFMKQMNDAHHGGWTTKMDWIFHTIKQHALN
T2 sequence (P27986 whole entry partner, canonical isoform): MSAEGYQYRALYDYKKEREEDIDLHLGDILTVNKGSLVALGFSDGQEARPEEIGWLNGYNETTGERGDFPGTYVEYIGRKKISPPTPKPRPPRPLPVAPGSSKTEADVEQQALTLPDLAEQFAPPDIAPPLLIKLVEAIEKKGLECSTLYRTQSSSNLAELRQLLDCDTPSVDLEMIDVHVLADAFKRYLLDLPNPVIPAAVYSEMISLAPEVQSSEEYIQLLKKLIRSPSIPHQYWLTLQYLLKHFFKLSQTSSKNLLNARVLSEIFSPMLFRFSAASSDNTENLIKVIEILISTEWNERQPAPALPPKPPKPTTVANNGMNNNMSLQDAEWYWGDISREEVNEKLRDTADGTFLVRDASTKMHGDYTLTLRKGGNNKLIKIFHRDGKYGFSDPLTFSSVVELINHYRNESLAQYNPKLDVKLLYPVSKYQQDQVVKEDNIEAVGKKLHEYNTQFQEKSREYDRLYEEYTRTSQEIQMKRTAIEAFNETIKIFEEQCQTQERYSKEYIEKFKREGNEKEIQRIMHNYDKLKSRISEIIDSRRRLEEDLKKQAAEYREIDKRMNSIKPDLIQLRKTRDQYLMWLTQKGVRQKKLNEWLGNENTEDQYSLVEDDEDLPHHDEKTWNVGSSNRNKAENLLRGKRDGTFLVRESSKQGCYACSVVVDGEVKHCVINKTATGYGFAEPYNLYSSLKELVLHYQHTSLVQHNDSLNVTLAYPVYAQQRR

## CC[C@H](Nc1ncnc2[nH]cnc12)c1oc2ccccc2c(=O)c1-c1cccc(F)c1 [Compound A1, (S)-2-(1-(9H-purin-6-ylamino)propyl)-3-(3-fluorophenyl)-4H-chromen-4-one]
PI3K alpha; at 10 μM, 3T3 fibroblasts
  inhibition of PDGF induced AktS473 phosphorylation: No inhibition
PI3K alpha; read-out: Cellular IC50 PI3K alpha (PDGF induced pAKT in 3T3 fibroblasts)
  pIC50: < 5.00
caspase-3 activity
  caspase-3 activity: dose-dependent induction
Female Wistar rats
  ED50: 6.5 mg/kg
Primary CLL cells; 10% FBS media
  pEC50: > 6.15
Primary CLL cells; serum-free medium
  pEC50: > 7.00
Pi3K α
  IC50: > 10000 nM
pAKT
  pEC50: 5.70 to 6.30
